Experimental data as given in US9695155B2, “Herbicidal substituted pyrimidinyloxy benzene compounds” (E. I. DU PONT DE NEMOURS AND COMPANY, priority 2013, dated 2017).

What was measured:
[1] = test system: canarygrass; assay: Test D preemergence; assay type: in vivo, Phalaris minor; conditions: Phalaris minor, pre-emergence
Procedure, shortened: (§1)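 Species were sown in silt loam for preemergence treatment, or grown in peat-based medium to the 1–4-leaf stage (2–18 cm) for postemergence sprays. Test chemicals were formulated in a non-phytotoxic solvent mixture with surfactant. After 7–21 days in a controlled environment, plants were rated visually against controls on a 0 (no effect) to 100 (complete control) scale.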

[2] = test system: galium; assay: Test D preemergence; assay type: in vivo, Galium aparine; conditions: Galium, pre-emergence
Procedure, shortened: as §1

[3] = test system: bromegrass, downy; assay: Test D preemergence; assay type: in vivo, Bromus tectorum; conditions: Bromus tectorum, pre-emergence
Procedure, shortened: as §1

[4] = test system: kochia; assay: Test D preemergence; assay type: in vivo, Kochia scoparia; conditions: Bassia scoparia, pre-emergence
Procedure, shortened: as §1

[5] = test system: wild radish; assay: Test D preemergence; assay type: in vivo, Raphanus raphanistrum; conditions: Raphanus raphanistrum, pre-emergence
Procedure, shortened: as §1

[6] = test system: windgrass; assay: Test D preemergence; assay type: in vivo, Apera spica-venti; conditions: Apera spica-venti, pre-emergence
Procedure, shortened: as §1

[7] = test system: bluegrass; assay: Test D postemergence; assay type: in vivo, Poa annua; conditions: Poa annua, post-emergence, Postemergence, scale 0 to 100 (0 no effect, 100 complete control), read-out: Plant response rating, Bluegrass
Procedure, shortened: as §1

[8] = test system: canarygrass; assay: Test D postemergence; assay type: in vivo, Phalaris minor; conditions: Phalaris minor, post-emergence
Procedure, shortened: as §1

[9] = test system: galium; assay: Test D postemergence; assay type: in vivo, Galium aparine; conditions: Galium, post-emergence
Procedure, shortened: as §1

[10] = test system: green foxtail; assay: Test D postemergence; assay type: in vivo, Setaria viridis; conditions: Setaria viridis, post-emergence
Procedure, shortened: as §1

[11] = test system: kochia; assay: Test D postemergence; assay type: in vivo, Kochia scoparia; conditions: Bassia scoparia, post-emergence
Procedure, shortened: as §1

[12] = test system: kochia; assay: Test F preemergence; assay type: in vivo, Kochia scoparia; conditions: 21 days, scale 0 to 100
Description: (§2) Seeds of plant species selected from bermudagrass (Cynodon dactylon), surinam grass (Brachiaria decumbens), large (Lg) crabgrass (Digitaria sanguinalis), crabgrass, naked (naked crabgrass, Digitaria nuda), foxtail, green (green foxtail, Setaria viridis), johnsongrass (Sorghum halepense), kochia (Kochia scoparia), morningglory (pitted morningglory, Ipomoea lacunosa), nutsedge, purple (purple nutsedge, Cyperus rotundus), ragweed (common ragweed, Ambrosia elatior), mustard, black (black mustard, Brassica nigra), guineagrass (Panicum maximum), dallisgrass (Paspalum dilatatum), barnyardgrass (Echinochloa crus-galli), sandbur (southern sandbur, Cenchrus echinatus), sowthistle (common sowthistle, Sonchus oleraceous), Italian ryegrass (Lolium multiflorum), signalgrass (broadleaf signalgrass, Brachiaria platyphylla), dayflower (Virginia (VA) dayflower, Commelina virginica), bluegrass (annual bluegrass, Poa annua), quackgrass (Elytrigia repens), mallow (common mallow, Malva sylvestris), buckwheat, wild (wild buckwheat, Polygonum convolvulus), leafy spurge (Euphorbia esula), chickweed (common chickweed, Stellaria media), wild poinsettia (Euphorbia heterophylla), and pigweed (Amaranthus retroflexus) were planted into a blend of loam soil and sand and treated preemergence with test chemicals formulated in a non-phytotoxic solvent mixture which included a surfactant.
(§3) Treated plants and controls were maintained in a greenhouse for 21 days, after which time all species were compared to controls and visually evaluated. Plant response ratings, summarized in Table F, are based on a scale of 0 to 100 where 0 is no effect and 100 is complete control. A dash (-) response means no test result.

[13] = test system: mustard, black; assay: Test F preemergence; assay type: in vivo, Brassica nigra; conditions: 21 days, scale 0 to 100
Procedure, shortened: (§4)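 Seeds were sown in a loam soil–sand blend and treated preemergence with compounds formulated in a non-phytotoxic solvent mixture containing surfactant. Pots were kept in a greenhouse for 21 days, then visually rated against untreated controls on a 0–100 scale (0 = no effect, 100 = complete control).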

[14] = test system: quackgrass; assay: Test F preemergence; assay type: in vivo, Elytrigia repens; conditions: 21 days, scale 0 to 100
Description: as §2, §3

[15] = test system: buckwheat, wild; assay: Test F preemergence; assay type: in vivo, Polygonum convolvulus; conditions: 21 days, scale 0 to 100
Procedure, shortened: as §4

[16] = test system: wild poinsettia; assay: Test F preemergence; assay type: in vivo, Euphorbia heterophylla; conditions: 21 days, scale 0 to 100
Procedure, shortened: as §4

N#Cc1cccc(Oc2ncc(Cl)cn2)c1-n1cc(OCC(F)(F)F)cn1 [Compound 274, 3-[(5-chloro-2-pyrimidinyl)oxy]-2-[4-(2,2,2-trifluoroethoxy)-1H-pyrazol-1-yl]benzonitrile]
pest or weed control at 16 g/ha ([1]; 16 g ai/ha, scale 0 (no effect) to 100 (complete control), read-out: Plant response rating, Canarygrass): 20% | pest or weed control at 31 g/ha ([1]; 31 g ai/ha, scale 0-100, read-out: Plant response rating, Canarygrass): 20% | pest or weed control at 62 g/ha ([1]; 62 g ai/ha, scale 0-100, read-out: Plant response rating, Canarygrass): 60% | pest or weed control at 125 g/ha ([1]; 125 g ai/ha, scale 0-100, read-out: Plant response rating, Canarygrass): 85% | pest or weed control at 16 g/ha ([2]; 16 g ai/ha, scale 0 (no effect) to 100 (complete control), read-out: Plant response rating, Galium): 0% | pest or weed control at 31 g/ha ([2]; 31 g ai/ha, scale 0-100, read-out: Plant response rating, Galium): 60% | pest or weed control at 62 g/ha ([2]; 62 g ai/ha, scale 0-100, read-out: Plant response rating, Galium): 100% | pest or weed control at 125 g/ha ([2]; 125 g ai/ha, scale 0-100, read-out: Plant response rating, Galium): 100% | pest or weed control at 16 g/ha ([3]; 16 g ai/ha, scale 0 (no effect) to 100 (complete control), read-out: Plant response rating, Bromegrass, Downy): 0% | pest or weed control at 31 g/ha ([3]; 31 g ai/ha, scale 0-100, read-out: Plant response rating, Bromegrass, Downy): 5% | pest or weed control at 62 g/ha ([3]; 62 g ai/ha, scale 0-100, read-out: Plant response rating, Bromegrass, Downy): 5% | pest or weed control at 125 g/ha ([3]; 125 g ai/ha, scale 0-100, read-out: Plant response rating, Bromegrass, Downy): 35% | pest or weed control at 16 g/ha ([4]; 16 g ai/ha, scale 0 (no effect) to 100 (complete control), read-out: Plant response rating, Kochia): 0% | pest or weed control at 31 g/ha ([4]; 31 g ai/ha, scale 0-100, read-out: Plant response rating, Kochia): 70% | pest or weed control at 62 g/ha ([4]; 62 g ai/ha, scale 0-100, read-out: Plant response rating, Kochia): 65% | pest or weed control at 125 g/ha ([4]; 125 g ai/ha, scale 0-100, read-out: Plant response rating, Kochia): 100% | pest or weed control at 16 g/ha ([5]; 16 g ai/ha, scale 0 (no effect) to 100 (complete control), read-out: Plant response rating, Radish, Wild): 5% | pest or weed control at 31 g/ha ([5]; 31 g ai/ha, scale 0 (no effect) to 100 (complete control), read-out: Plant response rating, Radish, Wild): 5% | pest or weed control at 125 g/ha ([5]; 125 g ai/ha, scale 0-100, read-out: Plant response rating, Radish, Wild): 85% | pest or weed control at 16 g/ha ([6]; 16 g ai/ha, scale 0 (no effect) to 100 (complete control), read-out: Plant response rating, Windgrass): 20% | pest or weed control at 31 g/ha ([6]; 31 g ai/ha, scale 0 (no effect) to 100 (complete control), read-out: Plant response rating, Windgrass): 90% | pest or weed control at 125 g/ha ([6]; 125 g ai/ha, scale 0-100, read-out: Plant response rating, Windgrass): 100% | pest or weed control at 16 g/ha ([7]; 16 g ai/ha): 20% | pest or weed control at 31 g/ha ([7]; 31 g ai/ha): 25% | pest or weed control at 62 g/ha ([7]; 62 g ai/ha): 30% | pest or weed control at 125 g/ha ([7]; 125 g ai/ha): 30% | pest or weed control at 16 g/ha ([8]; 16 g ai/ha, scale 0-100, read-out: Plant response rating, Canarygrass): 15% | pest or weed control at 31 g/ha ([8]; 31 g ai/ha, scale 0 to 100 (0 no effect, 100 complete control), read-out: Plant response rating, Canarygrass): 20% | pest or weed control at 62 g/ha ([8]; 62 g ai/ha, scale 0 to 100 (0 no effect, 100 complete control), read-out: Plant response rating, Canarygrass): 25% | pest or weed control at 125 g/ha ([8]; 125 g ai/ha, scale 0 to 100 (0 no effect, 100 complete control), read-out: Plant response rating, Canarygrass): 30% | pest or weed control at 16 g/ha ([9]; 16 g ai/ha, scale 0-100, read-out: Plant response rating, Galium): 70% | pest or weed control at 31 g/ha ([9]; 31 g ai/ha, scale 0 to 100 (0 no effect, 100 complete control), read-out: Plant response rating, Galium): 70% | pest or weed control at 62 g/ha ([9]; 62 g ai/ha, scale 0 to 100 (0 no effect, 100 complete control), read-out: Plant response rating, Galium): 75% | pest or weed control at 125 g/ha ([9]; 125 g ai/ha, scale 0 to 100 (0 no effect, 100 complete control), read-out: Plant response rating, Galium): 85% | pest or weed control at 16 g/ha ([10]; 16 g ai/ha, scale 0-100, read-out: Plant response rating, Foxtail, Green): 15% | pest or weed control at 31 g/ha ([10]; 31 g ai/ha, scale 0 to 100 (0 no effect, 100 complete control), read-out: Plant response rating, Foxtail, Green): 20% | pest or weed control at 62 g/ha ([10]; 62 g ai/ha, scale 0 to 100 (0 no effect, 100 complete control), read-out: Plant response rating, Foxtail, Green): 25% | pest or weed control at 125 g/ha ([10]; 125 g ai/ha, scale 0 to 100 (0 no effect, 100 complete control), read-out: Plant response rating, Foxtail, Green): 45% | pest or weed control at 16 g/ha ([11]; 16 g ai/ha, scale 0-100, read-out: Plant response rating, Kochia): 60% | pest or weed control at 31 g/ha ([11]; 31 g ai/ha, scale 0 to 100 (0 no effect, 100 complete control), read-out: Plant response rating, Kochia): 70% | pest or weed control at 62 g/ha ([11]; 62 g ai/ha, scale 0 to 100 (0 no effect, 100 complete control), read-out: Plant response rating, Kochia): 90% | pest or weed control at 125 g/ha ([11]; 125 g ai/ha, scale 0 to 100 (0 no effect, 100 complete control), read-out: Plant response rating, Kochia): 95% | Plant response rating, Kochia ([12]; 16 g ai/ha): 100 | Plant response rating, Kochia ([12]; 31 g ai/ha): 100 | Plant response rating, Kochia ([12]; 62 g ai/ha): 100 | Plant response rating, Kochia ([12]; 125 g ai/ha): 100 | Plant response rating, Kochia ([12]; 250 g ai/ha): 100 | Plant response rating, Mustard, Black ([13]; 16 g ai/ha): 98 | Plant response rating, Mustard, Black ([13]; 31 g ai/ha): 100 | Plant response rating, Mustard, Black ([13]; 62 g ai/ha): 100 | Plant response rating, Mustard, Black ([13]; 125 g ai/ha): 100 | Plant response rating, Mustard, Black ([13]; 250 g ai/ha): 100 | Plant response rating, Quackgrass ([14]; 16 g ai/ha): 40 | Plant response rating, Quackgrass ([14]; 31 g ai/ha): 40 | Plant response rating, Quackgrass ([14]; 62 g ai/ha): 70 | Plant response rating, Quackgrass ([14]; 125 g ai/ha): 85 | Plant response rating, Quackgrass ([14]; 250 g ai/ha): 98 | Plant response rating, Buckwheat, Wild ([15]; 16 g ai/ha): 100 | Plant response rating, Buckwheat, Wild ([15]; 31 g ai/ha): 100 | Plant response rating, Buckwheat, Wild ([15]; 62 g ai/ha): 100 | Plant response rating, Buckwheat, Wild ([15]; 125 g ai/ha): 100 | Plant response rating, Buckwheat, Wild ([15]; 250 g ai/ha): 100 | Plant response rating, Poinsettia, Wild ([16]; 16 g ai/ha): 5 | Plant response rating, Poinsettia, Wild ([16]; 31 g ai/ha): 10 | Plant response rating, Poinsettia, Wild ([16]; 62 g ai/ha): 70 | Plant response rating, Poinsettia, Wild ([16]; 125 g ai/ha): 95 | Plant response rating, Poinsettia, Wild ([16]; 250 g ai/ha): 100
